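Growth conditions: 96-well plates. Treatment: test compound, 48 hours, 5 concentrations. Analysis: linear interpolation between bracketing concentrations; unreached endpoints set to highest concentration. The concentration for 50% growth inhibition is given as GI50. TGI: total growth inhibition.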
Experiments:
Assay in all cases: DTP human tumour cell line panel, 48 h
U251 CNS = test system: U251 CNS
HL-60(TB) leukemia = test system: HL-60(TB) leukemia
A498 renal = test system: A498 renal
M14 melanoma = test system: M14 melanoma
SN12C renal = test system: SN12C renal
SK-OV-3 ovarian = test system: SK-OV-3 ovarian
A549 NSCLC = test system: A549 NSCLC
K-562 leukemia = test system: K-562 leukemia
RXF 393 renal = test system: RXF 393 renal

| SMILES | TGI (U251 CNS) [µM] | TGI (HL-60(TB) leukemia) [µM] | TGI (A498 renal) [µM] | TGI (M14 melanoma) [µM] | TGI (SN12C renal) [µM] | TGI (SK-OV-3 ovarian) [µM] | TGI (A549 NSCLC) [µM] | TGI (K-562 leukemia) [µM] | TGI (RXF 393 renal) [µM] | GI50 (U251 CNS) [µM] | GI50 (SN12C renal) [µM] | GI50 (SK-OV-3 ovarian) [µM] | GI50 (K-562 leukemia) [µM] | GI50 (RXF 393 renal) [µM] | GI50 (HL-60(TB) leukemia) [µM] | GI50 (A498 renal) [µM] | GI50 (M14 melanoma) [µM] | GI50 (A549 NSCLC) [µM] |
| --- | --- | --- | --- | --- | --- | --- | --- | --- | --- | --- | --- | --- | --- | --- | --- | --- | --- | --- |
| CCN(CC)C(=O)Cc1[nH][nH]c(=O)c1C(=O)N(CC)CC | > 100 | > 100 | > 100 | > 100 | > 100 | > 100 | > 100 | > 100 | > 100 | – | – | – | – | – | – | – | – | – |
| CCN(CC)c1ccc(N=Nc2ccc(-c3nc4cccnc4s3)cc2)cc1 | > 100 | > 100 | > 100 | > 100 | > 100 | > 100 | > 100 | > 100 | – | – | – | – | – | – | – | – | – | – |
| N#Cc1c(N)oc2cc3c(C#N)c(N)oc3cc12 | > 100 | > 100 | – | > 100 | > 100 | > 100 | > 100 | > 100 | > 100 | – | – | – | – | – | – | – | – | – |
| CC(C)(c1ccc(C=O)o1)c1ccc(C(C)(C)c2ccc(C=O)o2)o1 | > 100 | > 100 | > 100 | – | – | > 100 | > 100 | > 100 | > 100 | – | – | – | – | – | – | – | – | – |
| CCOC(=O)C1=C(C)N(NC(=O)Nc2ccccc2)C2(N)N(NC(=O)Nc3ccccc3)C(C)=C(C(=O)OCC)C12C#N (configuration not stated) | 32.3 | – | 45 | 34.6 | 33 | 52.1 | > 100 | 48.2 | 27.7 | – | – | – | – | – | – | – | – | – |
| COC1=CC(=O)[C@@]2(C)C(C)[C@H](c3ccccc3)[C@H]2C1=O (some centres not stated) | > 100 | > 100 | > 100 | > 100 | – | > 100 | > 100 | > 100 | > 100 | – | – | – | – | – | – | – | – | – |
| Cc1cc2c3ccccc3n3c2c2c1OC1(C)CCC(C2C1)C3(C)C (configuration not stated) | > 25 | > 25 | – | > 25 | > 25 | > 25 | > 25 | > 25 | – | – | – | – | – | – | – | – | – | – |
| COc1ccc(N2C(=O)[C@@H]3[C@@H]4CC(C)CC[C@@H]4c4c([nH]c5ccccc45)[C@@H]3C2=O)cc1 (some centres not stated) | 28.8 | 89.4 | 35.9 | > 74.9 | 32.5 | 22.8 | > 68.3 | > 100 | – | – | – | – | – | – | – | – | – | – |
| C=C(C)[C@@H]1CC[C@]2(C(=O)O)CC[C@]3(C)[C@H](CC[C@@H]4[C@@]5(C)CCC(N)C(C)(C)[C@@H]5CC[C@]43C)[C@@H]12 (some centres not stated) | 3.6 | – | – | – | 3.35 | > 100 | – | 3.36 | 3.31 | 1.95 | 1.78 | > 100 | 0.682 | 1.77 | – | – | – | – |
| COC1=CC(=O)C2(C=C1OC)OC[C@H]1Oc3c(ccc4c3C=CC(C)(C)O4)C(=O)[C@H]12 (some centres not stated) | > 100 | 44.6 | > 100 | > 100 | – | > 100 | > 100 | > 100 | > 100 | – | – | – | – | – | – | – | – | – |
| O=C(O)CCCCCNCc1cc2cc3c(cc2c2cc(OCc4ccccc4)ccc12)OCO3 | 3.28 | 6.85 | 13.2 | 3.51 | 19.8 | 19.9 | 3.17 | – | – | 1.73 | 5.42 | 5.11 | – | – | 2.32 | 3.17 | 1.9 | 1.55 |
| COC(=O)CC(=O)OC1C[C@@H]2CCC3C(C)(C)CCC[C@]3(C)C23CC[C@@]1(C)C3 (some centres not stated) | 31.2 | > 100 | – | 33.7 | 31.3 | 52.4 | 65.1 | > 100 | 37.2 | – | – | – | – | – | – | – | – | – |
| CC1=Nc2ccccc2S/C1=C1/C=NC(=NC#N)N=C1C(=O)Nc1cccc(Cl)c1 | > 100 | – | > 100 | > 100 | > 100 | > 100 | > 100 | > 100 | > 100 | – | – | – | – | – | – | – | – | – |
| CC(=O)OC1(C(C)=O)CC2(c3ccccc3)OC1(c1ccccc1)c1ccccc12 (configuration not stated) | > 100 | – | – | > 100 | > 100 | > 100 | > 100 | – | 60.2 | – | – | – | – | – | – | – | – | – |
| CC(=O)[CH-]C(=O)c1ccccc1.CC(=O)[CH-]C(=O)c1ccccc1.Cl.[O-]CCc1ccccn1.[O-]CCc1ccccn1.[Ti+4] | – | 93.5 | 75.1 | 70.5 | > 100 | > 100 | 95.9 | > 100 | – | – | 36.1 | 39.5 | 21 | – | 21.2 | 28.8 | 22 | 27.8 |
| CSCSCC(CO)NC(=O)/C=C/c1c(C)[nH]c(=O)[nH]c1=O (configuration not stated) | > 100 | > 100 | > 100 | > 100 | > 100 | – | > 100 | > 100 | > 100 | – | – | – | – | – | – | – | – | – |
| O=C(CC1(O)C(=O)Nc2ccccc21)c1cccc(O)c1 (configuration not stated) | – | > 100 | > 100 | > 100 | > 100 | > 100 | > 100 | > 100 | > 100 | – | – | – | – | – | – | – | – | – |
| CCCC(O)c1ccc2[nH]c3c(C)cc([N+](=O)[O-])c(C)c3c2c1 (configuration not stated) | – | > 100 | – | > 100 | > 100 | – | > 100 | > 100 | – | – | – | – | – | – | – | – | – | – |

From PubChem BioAssay (NCI)
